What was measured:
[1] = Kinematic viscosity at 25° C. (ASTM D-445-97); type: physicochemical
Description: Kinematic viscosity was tested at 25° C. using ASTM (American Society of Testing and Materials, West Conshohocken, Pa., United States of America) Official Method No. D-445-97 (1997), the contents of which are incorporated herein by reference. Color was measured using ASTM D-1209-97 (1997), acid value was determined using ASTM D-972-95 (1995) and hydroxyl number was determined using a modified version of AOCS (American Oil Chemists Society, Champaign, Ill., United States of America) Official Method No. Cd-13-60 (1997), the contents of which are incorporated herein by reference. Odor was determined using a subjective olfactory assessment.

[2] = Spreading characteristics on WHATMAN filter paper (50 microliters); type: physicochemical; conditions: for Spreadibility (1 minute) / Spreadibility (3 minutes) / Spreadibility (5 minutes): 50 microliters on filter paper
Description: The spreading characteristics of fluid used in personal care products are an effective predictor of “skin feel.” To test the spreading characteristics a four inch WHATMAN® filter paper was positioned horizontally over an eight ounce jar. Fifty microliters of each product were then pipetted onto the center of the filter paper. The spreading area of the liquid was then measured at intervals of one, three, and five minutes. Faster spreading products will have a higher spreading area at each time interval.

SMILES | Viscosity at 25° C. [1] [cSt] | viscosity ([1]; stated in description) [centistokes] | Spreadibility (1 minute) [2] [cm] | Spreadibility (3 minutes) [2] [cm] | Spreadibility (5 minutes) [2] [cm] | spreading (in words) ([2]; stated in description) | Spreadibility (1 minute) ([2]; listed as D5 Fluid) [cm] | Spreadibility (3 minutes) ([2]; listed as D5 Fluid) [cm] | Spreadibility (5 minutes) ([2]; listed as D5 Fluid) [cm]
CCCCC(=O)OCC(C)(C)COC(=O)CCCC [NDP, neopentyl glycol dipentanoate] | 5.1 | 5.1 | 3.08 | 3.48 | 3.85 | rapidly spreading |  |  | 
CCC(CC)C(=O)OCC(C)(C)COC(=O)C(CC)CC [ND2EB, neopentyl glycol di-2-ethylbutyrate] | 7.6 |  | 3.00 | 3.43 | 3.63 |  |  |  | 
CCCCCC(=O)OCCOCCOC(=O)CCCCC [DEGDH, diethylene glycol dihexanoate] | 14.4 |  | 2.98 | 3.43 | 3.68 |  |  |  | 
CC(C)C(=O)OCC(C)(C)COC(=O)C(C)C [NDI] | 3.5 |  | 3.18 | 3.63 | 3.88 |  |  |  | 

Further lines, results first:

Viscosity at 25° C. [1] [cSt] | viscosity ([1]; stated in description) [centistokes] | Spreadibility (1 minute) [2] [cm] | Spreadibility (3 minutes) [2] [cm] | Spreadibility (5 minutes) [2] [cm] | spreading (in words) ([2]; stated in description) | Spreadibility (1 minute) ([2]; listed as D5 Fluid) [cm] | Spreadibility (3 minutes) ([2]; listed as D5 Fluid) [cm] | Spreadibility (5 minutes) ([2]; listed as D5 Fluid) [cm] | SMILES
4.0 |  | 2.90 | 3.40 | 3.60 |  | 2.9 | 3.4 | 3.6 | C[Si]1(C)O[Si](C)(C)O[Si](C)(C)O[Si](C)(C)O[Si](C)(C)O1 [Example D5, reference compound]
 |  | 3.10 | 3.50 | 3.60 |  |  |  |  | C[Si]1(C)O[Si](C)(C)O[Si](C)(C)O[Si](C)(C)O1 [Example D4, reference compound]

— patent US20050260150A1, “Polyol polyester-containing personal care products that do not contain low viscosity silicone fluids” (INOLEX INVESTMENT CORP., priority 2004, published 2005)
